US20060257875A1, “Affinity screening using "one-bead-one-compound" libraries” (Carlsberg A/S, priority 2003, published 2006)
Where “and” joins values, the source holds several entries; their conditions need not be identical. Equal entries are not always repeated. Entries after “also recorded” stand apart in the source; their conditions may differ. Where two headings read alike, the source gives them in different places. Starred links: 1 amine or outer side, 2 acyl side, 3 side chain; linkers in the order of their positions; H or OH if unused. Non-standard residues stand in square brackets, D forms with d. Primed or numbered codes have the meaning given here. No end group written: not given here. Gua = 4-S-(Di-Boc-guanidino)-L-proline, CC(C)(C)OC(=O)N=C(NC(=O)OC(C)(C)C)N[C@H]1C[C@@H](C(=O)[*:2])N([*:1])C1; Pip′ = 4-phenyl-piperidine-4-carboxylic acid, O=C(C1(c2ccccc2)CCN([*:1])CC1)[*:2]; Abi = 3-amino-3-(biphenyl)-propanoic acid; Hyp = O=C(O)[C@@H]1C[C@@H](O)CN1; 3Pal = N[C@@H](Cc1cccnc1)C(=O)O; GlcNN = not defined here; Acm′ = not defined here; ManN = not defined here; ManS = not defined here

Tests used:
[1] = test system: phenylephrine (PE)-treated myocyte proteins; test: Solid phase screening of Library 1 with labeled myocyte proteins; bound proteins identified by on-bead digest and peptide mass fingerprinting; assay type: binding, neonatal Wistar rats; conditions: Library 1 ligand on PEGA4000 bead; Phenylephrine Treated (Hyperthrophic) Myocytes
Procedure: (§1) Myocytes were prepared from 1 to 5 day old neonatal Wistar rats (University of Copenhagen) according to literature procedure described in Busk et al., 2002, Cardiovasc. Res., 56: 64-75 and plated into eight P10 culture plates at 6 million cells/plate.
(§2) Protein was extracted from myocytes prepared as described above for Example 9, using a new procedure modified from existing protocols, primarily: Arrott, et al., 1998, Anal Biochem. 258: 1-18. The media was removed from plates and adhered cells were treated for 10 minutes with ice cold phosphate buffer (0.25 mL, 10 mM, pH 7.5, augmented with 0.15 M NaCl 60 mM Benzamidine HCl, 5 mM EDTA, 10 μg/n E-64, 10 μg/mL Leu-peptin, 10 μg/mL Pepstatin A, and 1 mM PMSF). The cells were scraped off the plates and then lysed (on ice) in a sonicator (2×) using 10 seconds off/10 seconds on cycles.
(§3) The resulting suspension was augmented with CHAPS, DTT, and urea to a final concentration of CHAPS (1% w/v), DTT (5 mM), and urea (8 M). After 10-15 minutes on ice, the solution was centrifuged for 10 minutes at 15,000 rpm at 4° C. The supernatant was removed and protein content quantified using the NanoOrange Protein test (Molecular Probes, Eugene, Oreg.): Total protein recovered: 70.5 μg for PE-treated cells and 60 μg for basal cells.
(§4) Fluorescent dye Oregon Green 514 (OR) (Molecular Probes) was used to label the healthy/basal cells while Rhodamine Red (RR) (Molecular Probes) was used to label the PE-treated cells. The labeling procedures were carried out according to the manufacturer's protocol. The protein solutions (0.25 mL, 50.4 μg for PE cells and 0.25 mL, 42.8 μg for basal cells) were dialyzed against a solution of 10 mM phosphate buffer, 0.15 M NaCl, pH 7.5 and then 1 M NaHCO3 (0.025 mL) added to a final pH of 8.5. 10 μL of dye in dry DMF (10 mg/mL) was added and the sample stirred at room temperature for 2 hours. The protein solution was dialyzed extensively against 10 mM phosphate buffer, 0.15 M NaCl, pH 7.5, to remove excess dye.
(§5) Ligand library 1 (200 mg), prepared as described for Example 5, was transferred to a syringe fitted with a stop-valve and the ligand-beads were washed for 10 minutes (3×) with 10 mM phosphate buffer, pH 6.8, supplemented with 0.15 M NaCl, 1 mM Ca^2+, 1 mM Zn^2+, 1 mM Mn^2+, 1 mM Cu^2+, and 1 mM Mg^2+ (3 mL). The ligand-beads were treated with a 1% BSA solution for 30 minutes, then washed with buffer (1×). A mixture of labeled myocyte proteins, including both PE-induced protein (138 μL, 40 μg) and basal protein (167 μL, 40 μg) obtained as described above for Example 11, was prepared in 1.2 mL buffer, and added to the ligand library in the syringe. The proteins and ligand library were incubated at room temperature for 16 hours. The library was then washed with buffer for 5 minutes then with water for 3×5 minutes. The library was examined under a fluorescence microscope and brightly fluorescent red, green, and yellow beads (yellow indicative of both dyes red and green binding; the majority of the beads) were present, as well as unlabelled beads. The fluorescent beads were separated and retained for analysis.
(§6) The fluorescent ligand library beads containing bound protein obtained as described in Example 15 were sorted using a COPAS (250) NF Bead Sorter (Union Biometrica, Somerville, Mass.) equipped with a single flourescence emission. Beads emitting fluorescence of only one color contain proteins from one physical state, e.g. proteins expressed only in the PE-induced hypertrophic state (red) or proteins expressed only in the basal state (green). Since the instrument measures one fluorescence emission at a time, beads containing one type of color fluorescence were first sorted and then beads were resorted for emissions from the other fluorescence color. The library was first sorted such that all beads containing significant green fluorescence, basal proteins from healthy myocytes, were isolated. […]

[2] = test system: basal myocyte protein; test: Solid phase screening of Library 6 with unlabeled myocyte proteins; silver staining, on-bead tryptic digest; assay type: binding, neonatal Wistar rats; conditions: Normal Myocytes
Procedure: as §1
Isolated proteins that bound to specific ligands were identified using peptide mass fingerprinting. Mass spectra were recorded on a Bruker Reflex m MALDI time-of-flight mass spectrometer (Bruker-Daltonics, Bremen, Germany) operated in the positive reflectron mode using delayed extraction. Measurements were performed using the following parameters: Power 83-84 V; lens 7.300. The sum of 200-300 shots was used for each spectrum.
The spectra were calibrated using bradykinin peptide. In some cases, internal mass calibration was performed using a porcine trypsin autolysis product Peptide masses were searched against peptide mass maps in the National Center for Biotechnology Information (NCBI) database using the following search engines found on the world wide web (www.) for each of: • MS-FIT (prospector.ucsf.edu/ucsfhtml/msfit.htm), • Profound (129.85.19.192/profound_biniWebProFound.exe), and • MASCOT (matrixscience.com).
A search was performed using the NCBI bacterial (E. coli) database and the mammalian databases for the isolated proteins from the E. coli and myocyte samples, respectively, and the Swiss Prot mammalian databases and the Swiss Prot viral databases were searched to identify the porcine macrophage proteins and proteins, respectively. A molecular mass range was estimated from 0-250 K Da, allowing a mass accuracy that varied from 0.1 Da (some cases 0.3 Da) for each peptide mass. A large pI range from 0-14 or 0-12 was considered for each search. If no proteins matched, the mass window was extended. Partial enzyme cleavages allowing for two missed cleavage sites and modification of cysteine by alkylation were considered in the search approaches. A protein was considered identified if the matched peptides covered at least 30% of the complete sequence. A match of less than 30% was considered in some cases, if prominent peaks were obtained. Usually, four or more peptides were used for identification. In some instances, hypothetical proteins or gene products, such as biochemical material, either RNA or protein, calculated from the expected expression of a gene and to which a function may be assigned based on sequence homology, were identified.
Protein was extracted from myocytes prepared as described above for Example 9, using a new procedure (to preserve the activity of metalloproteases) modified from existing protocols, primarily: Amott, et al., 1998, Anal. Biochem. 258: 1-18. The media was removed from plates and cells were washed with ice cold phosphate buffer (5 ml, 10 mM, pH 7.5, supplemented with 0.15 M NaCl,) to remove traces of media components. The adhered cells were treated for 10 minutes with ice cold phosphate buffer (2 mL, 10 mM, pH 7.5, augmented with 0.15 M NaCl, […] E-64, 10 μg/mL Leupeptin, and 10 μg/mL Pepstatin A). The cells were scraped off the plates and then lysed (on ice) in a sonicator (2×) using 10 seconds off/110 seconds on cycles.
as §3, with “with” for “with CHAPS, DTT, and urea to a final concentration of”, “w/v), KCl (50 mM), NaCl (0.5 M), ZnCl2 (0.1 mM),” for “w/v),”, “(2” for “(8”, “195” for “70.5”, “PE-induced” for “PE-treated”, “200” for “60”
The protein solutions were dialyzed extensively against 20 mM MES (2-[N-Morpholino]ethanesulfonic acid) buffer pH 6.0, supplemented with 0.15 M NaCl and 1 mM ZnCl2 to remove excess detergent and urea. […]

[3] = test system: normal (basal) myocyte protein mixtures; test: Solid phase screening of Library 1 with labeled myocyte proteins; bound proteins identified by on-bead digest and peptide mass fingerprinting; assay type: binding, neonatal Wistar rats; conditions: Library 1 ligand on PEGA4000 bead; Normal Myocytes; proteins primarily present in basal cells
Procedure: as §1, §2, §3, §4, §5, §6

[4] = test system: six protein mixture: Con A, P. sativum lectin, L. culinaris lectin, W. floribunda lectin, Glyceraldehyde 6-phosphate, bovine serum albumin; test: Solid phase screening of Library 3 with labeled six protein mixture; affinity purification, gel electrophoresis and Edman degradation; assay type: binding; conditions: for Identified Protein(s): Library 3 ligand on PEGA6000 resin

Molecule	Identified Protein(s) [2]	Identified Protein(s) [3]	further results
Phe-Abi-Pal-Hyp-Thr-Hyp	–	–	Identified Protein(s) [1]: Zinc finger associated protein gi 20304091; Ribosomal; also recorded: proteins 40S L series (gi 206736/133023);
CCC(CCO)NC(CCCCN)C(=O)N1CCN(C(=O)OC(C)(C)C)CC1 (centres unmarked)	Angiotensin converting enzyme (P22967).	–	–
Lys-Met-Hyp-Trp-Tyr-Gun (KM[Hyp]WY[Gua])	–	–	Identified Protein(s) [1]: Cell surface glycoprotein (gi 23603627); Hypothetical; also recorded: protein (XP-179829; gi 14720727)
Phe-Phe-Phe-Pip-Aze-Gua	–	Phosphatidyl choline-sterol acyl transferase (400167;; also recorded: LCAT-PIG_9)	–
His-Tyr-Pip-Thr-Acm-Abi (HY[Pip′]T[Acm′][Abi]; reading uncertain; also: printed as His-Tyr-Pip-Thr-Acm-Abi)	–	Chain C P27 cyclin A-CDK2 complex: (Cyclin A?) (gi and 2392395); Hypothetical protein XP_154035.	–
CC(C)C(NC(CCCCN)C(=O)C[C@@H](C)C(=O)O)C(C)C (some centres unmarked)	Mysoin heavy chain nonmuscular type (AQ62812).	–	–
HTWGYW	–	–	Identified Protein(s) ([4]; six protein mixture): Con A; selectivity of binding among the lectins ([4]; six protein mixture): binds selectively to Con A
Phe-Thr-Pya-Pip-Asp-His (FT[3Pal][Pip′]DH)	–	(Sodium channel (gi 18591322) (M); Chloride channel (gi and 6978663/4502867) (M)) Troponin I (gi 1351298);; Zn Fin- and ger protein (gi 18591322) (MA); SPTR (peroxisomal Ca and dependent solute carrier (putative) (gi 12853685); and Beta-2 adnergic receptor (gi 12699028)	–
CC(C)C(NC(CCCCN)C(=O)N1CCN(C(=O)OC(C)(C)C)CC1)C(C)C (centres unmarked)	Angiotensin converting enzyme (P22967).	–	–
Phe-Ppy-Acc-Ala-Ppy-Hpy	–	Hypothetical proteins; Troponin T gi 547047;; (Phospho-; also recorded: lipase C (MA); Phosphatidyicholine sterol acyl trans-; also recorded: ferase (400167;LCAT-PIG_9))	–
Abi-Phe-Abi-Phe-Che-Tyr	–	–	Identified Protein(s) [1]: Cathepsin E (gi 4503145); Ribosomal proteins (60s L; also recorded: series) (gi 20826861)
CCOC(=O)C(CCc1ccccc1)NC(CCCCN)C(=O)N1CCC[C@H]1C(=O)O (some centres unmarked) [drawing 164]	Angiotensin converting enzyme (P22967); U2 nuclear ribonucleoprotein auxxiliary factor (gi 2842676).	–	–
CCCCCCNC(=O)C(CCCCN)NC(C(C)C)C(C)C (centres unmarked) [drawing 170]	Heat Shock protein 70 kDa protein 12A (Q8KOU4); Ser- ine/threonine protein kinase (O88866); Ras GTPase acti- vating protein 2 (GAP1m) (58069).	–	–
Pya-Gua-Pip-Acc-Phe-Pip	–	NADH dehydrogenase; ATP binding component (gi 18598538); also recorded: (M); Myosin heavy polypeptide 9 (gi 13543854); Histone; also recorded: associated proteins (gi 20893760) (M)	–
GlcNN-Val-GlcNN-His-ManS-Gly	–	–	Identified Protein(s) ([4]; six protein mixture): Con A, P. sativum; also recorded: lectin
CCOC(=O)C(CCc1ccccc1)NC(CCCCN)C(=O)N[C@@H](C)C(=O)O (some centres unmarked)	Testase 1 or disintegrin 5 containing metalloproteinase domain 24 (gi 31981793); ADP-ribosylation factor like protein 8 (Q96KC2).	–	–
Pya-Hyp-Hyp-Phe-Acm-Tyr	–	Troponin T (gi 547047); Ca2+/Calmodulin activated My-; also recorded: osin light chain kinase (gi 284660) (LA, MA); cGMP-; also recorded: dependent protein kinase (gi 284660) (LA)	–
CCOC(=O)C1CCCCC1NC(CCCCN)C(=O)NC(CCCCNC(=O)OC(C)(C)C)C(=O)O (centres unmarked)	Angiotensin converting enzyme (P22967); U2 nuclear ribonuceoprotein zuxiliary factor (gi 2842676).	–	–
Pip-Pal-Pal-Phe-Pya-Pip	–	544086) (M); Ribosomal proteins (60s) (gi 21426891); and SPTR (gi 20837095) (M) and Ca2+/Calmodulin activated Myosin light chain kinase (gi and 284660) (LA, MA); Regulator of G-Protein Signalling and (RGS14) variant (gi 2708808) ATP Synthase component and (subunit e) (gi 258788) (M);; Cytochrome P450 (gi	–
Phe-Gua-Asp-Abi-His-Aze	–	Hypothetical protein XP_043250 (gi 14773490)	–
CCCCCCNC(=O)C(CCCCN)NC1CCCCC1C(=O)OCC (centres unmarked)	Inward rectifier potassium channel 13 (Q9QZ65, IRKD_CAVPO); Sulfonylurea receptor 2 (Q63563); small conductance potassium channel (P58391).	–	–
CCCCCCNC(=O)C(CCCCN)NC(CC)CCO (centres unmarked)	Myosine heavy chain, nonmuscular type (AQ62812); Hypothetical protein E330017A01 (XP-148690.1).	–	–
ManN-Phe-Trp-Ser-Lys-His ([ManN]FWSKH; reading uncertain; also: printed as ManN-Phe-Trp-Ser-Lys-His)	–	–	Identified Protein(s) ([4]; six protein mixture): Con A, P. sativum; also recorded: lectin
FTYFAK	–	Serine/threonine Protein kinase (gi 5730055); Carbonic; also recorded: anhydrase VII (gi 10304383)	–
GlcNN-Trp-Phe-Asp-Trp-Pro ([GlcNN]WFDWP; reading uncertain)	–	–	selectivity of binding among the lectins [4]: binds only to Con A and not to the other lectins; Identified Protein(s) ([4]; six protein mixture): Con A
ManS-Gly-ManS-Asp-Asn-Ala ([ManS]G[ManS]DNA; reading uncertain; also: printed as ManS-Gly-ManS-Asp-Asn-Ala)	–	–	Identified Protein(s) ([4]; six protein mixture): Con A, P. sativum; also recorded: lectin
CCOC(=O)C1CCCCC1NC(CCCCN)C(=O)N[C@@H](C)C(=O)O (some centres unmarked)	Golgi coiled coil protein GCC185 (Q8CHG3).	–	–
